# Like-named read-outs stand apart in the source and are kept apart here.
# What was measured:
# Format in all cases: cell-based
# [1] = system: mantle cell lymphoma cell (Mino or JeKo-1); assay: Antiproliferative effect, MTS cell viability assay
# Description: Antiproliferative effect of the exemplary compounds was assessed in B-cell malignancy models.
# To assess the effect of the exemplary compounds on cell viability in B-cell malignancy models by degradation of CDK4/6 proteins, Mino cells were treated with varying concentrations of exemplary compounds (0, 0.0001, 0.001, 0.01, 0.1, 1 μM) or positive control (palbociclib and abemaciclib). Under these conditions, cell viability was determined by an MTS assay. Cytotoxicity was assayed by the determination of reduced tetrazolium (formazan) created by metabolically active cells as detected at 490 nanometers (nm) absorbance using a microplate reader (BMG Labtech, Cary, NC, USA).
# The exemplary compounds attenuated the viability of Mino cells in a concentration-dependent manner at 72 h post treatment. Results are shown in Table 1 and FIGS. 2-15 for each exemplary compound.
# CDK4 = target: T1, CDK4 (Homo sapiens, UniProt P11802); assay: CDK4 degradation (DC50, Dmax)
# T1 construct: endogenous in cells
# T1 sequence (P11802 whole entry): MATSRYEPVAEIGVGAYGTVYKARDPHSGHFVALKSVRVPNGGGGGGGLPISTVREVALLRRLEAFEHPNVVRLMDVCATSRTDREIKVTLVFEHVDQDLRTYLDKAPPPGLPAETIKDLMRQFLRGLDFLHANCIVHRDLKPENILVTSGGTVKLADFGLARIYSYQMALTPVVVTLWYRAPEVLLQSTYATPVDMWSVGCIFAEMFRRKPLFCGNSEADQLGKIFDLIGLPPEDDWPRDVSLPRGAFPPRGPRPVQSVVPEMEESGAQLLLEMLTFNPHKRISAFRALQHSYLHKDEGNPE
# CDK6 = target: T2, CDK6 (Homo sapiens, UniProt Q00534); assay: CDK6 degradation (DC50, Dmax)
# T2 construct: endogenous in cells
# T2 sequence (Q00534 whole entry): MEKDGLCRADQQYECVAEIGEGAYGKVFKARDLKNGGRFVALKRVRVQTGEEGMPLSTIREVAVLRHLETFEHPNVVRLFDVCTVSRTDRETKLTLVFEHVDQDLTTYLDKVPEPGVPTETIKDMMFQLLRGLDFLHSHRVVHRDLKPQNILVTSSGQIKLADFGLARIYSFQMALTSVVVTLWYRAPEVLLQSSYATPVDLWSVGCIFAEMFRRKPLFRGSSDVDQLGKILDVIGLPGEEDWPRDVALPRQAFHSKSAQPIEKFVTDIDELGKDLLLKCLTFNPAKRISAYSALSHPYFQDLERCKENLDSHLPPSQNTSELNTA
# [2] = 72 h, mantle cell lymphoma cell (Mino or JeKo-1), MTS assay, read-out: IC50 (anti-proliferation)
# [3] = mantle cell lymphoma cell (Mino or JeKo-1); MTS assay, 72 h; read-out: IC50 (anti-proliferation)
SMILES,"IC50 [1, 2]",DC50 (CDK4),Dmax (CDK4),DC50 (CDK6),Dmax (CDK6),"IC50 [1, 3]"
"CC(=O)c1c(C)c2cnc(Nc3ccc(N4CCN(C(=O)N5CCN(CCN6CCC(c7ccc8c(c7)C(=O)N(C7CCC(=O)NC7=O)C8=O)CC6)CC5)CC4)cn3)nc2n(C2CCCC2)c1=O (stereo not drawn) [Compound 27, 5-(1-(2-(4-(4-(6-((6-acetyl-8-cyclopentyl-5-methyl-7-oxo-7,8-dihydropyrido[2,3-d]pyrimidin-2-yl)amino)pyridin-3-yl)piperazine-1-carbonyl)piperazin-1-yl)ethyl)piperidin-4-yl)-2-(2,6-dioxopiperidin-3-yl)isoindoline-1,3-dione]",50 to 200 nM,> 200 nM,> 60%,> 200 nM,> 60%,
"CC(=O)c1c(C)c2cnc(Nc3ccc(N4CCN(C(=O)N5CCN(CCN6CCC(c7ccc8c(c7)CN(C7CCC(=O)NC7=O)C8=O)CC6)CC5)CC4)cn3)nc2n(C2CCCC2)c1=O (stereo not drawn) [Compound 28, 3-(5-(1-(2-(4-(4-(6-((6-acetyl-8-cyclopentyl-5-methyl-7-oxo-7,8-dihydropyrido[2,3-d]pyrimidin-2-yl)amino)pyridin-3-yl)piperazine-1-carbonyl)piperazin-1-yl)ethyl)piperidin-4-yl)-1-oxoisoindolin-2-yl)piperidine-2,6-dione]",50 to 200 nM,> 200 nM,> 60%,> 200 nM,> 60%,
"CC(=O)c1c(C)c2cnc(Nc3ccc(N4CCN(C(=O)N5CCC(CCN6CCC(c7ccc8c(c7)C(=O)N(C7CCC(=O)NC7=O)C8=O)CC6)CC5)CC4)cn3)nc2n(C2CCCC2)c1=O (stereo not drawn) [Compound 29, 5-(1-(2-(1-(4-(6-((6-acetyl-8-cyclopentyl-5-methyl-7-oxo-7,8-dihydropyrido[2,3-d]pyrimidin-2-yl)amino)pyridin-3-yl)piperazine-1-carbonyl)piperidin-4-yl)ethyl)piperidin-4-yl)-2-(2,6-dioxopiperidin-3-yl)isoindoline-1,3-dione]",> 200 nM,> 200 nM,> 50%,> 200 nM,> 50%,
"CC(=O)c1c(C)c2cnc(Nc3ccc(N4CCN(C(=O)N5CCC(CCN6CCC(c7ccc8c(c7)CN(C7CCC(=O)NC7=O)C8=O)CC6)CC5)CC4)cn3)nc2n(C2CCCC2)c1=O (stereo not drawn) [Compound 30, 3-(5-(1-(2-(1-(4-(6-((6-acetyl-8-cyclopentyl-5-methyl-7-oxo-7,8-dihydropyrido[2,3-d]pyrimidin-2-yl)amino)pyridin-3-yl)piperazine-1-carbonyl)piperidin-4-yl)ethyl)piperidin-4-yl)-1-oxoisoindolin-2-yl)piperidine-2,6-dione]",> 200 nM,> 200 nM,> 50%,> 200 nM,> 50%,
"CC(=O)c1c(C)c2cnc(Nc3ccc(N4CCN(CC5CCN(C(=O)N6CCN(c7ccc8c(c7)C(=O)N(C7CCC(=O)NC7=O)C8=O)CC6)CC5)CC4)cn3)nc2n(C2CCCC2)c1=O (stereo not drawn) [Compound 31, 5-(4-(4-((4-(6-((6-acetyl-8-cyclopentyl-5-methyl-7-oxo-7,8-dihydropyrido[2,3-d]pyrimidin-2-yl)amino)pyridin-3-yl)piperazin-1-yl)methyl)piperidine-1-carbonyl)piperazin-1-yl)-2-(2,6-dioxopiperidin-3-yl)isoindoline-1,3-dione]",,50 to 200 nM,> 80%,50 to 200 nM,> 80%,< 50 nM
"CC(=O)c1c(C)c2cnc(Nc3ccc(N4CCN(CC5CCN(C(=O)N6CCN(c7ccc8c(c7)CN(C7CCC(=O)NC7=O)C8=O)CC6)CC5)CC4)cn3)nc2n(C2CCCC2)c1=O (stereo not drawn) [Compound 32, 3-(5-(4-(4-((4-(6-((6-acetyl-8-cyclopentyl-5-methyl-7-oxo-7,8-dihydropyrido[2,3-d]pyrimidin-2-yl)amino)pyridin-3-yl)piperazin-1 - yl)methyl)piperidine-1-carbonyl)piperazin-1-yl)-1-oxoisoindolin-2-yl)piperidine-2,6-dione]",50 to 200 nM,50 to 200 nM,> 60%,50 to 200 nM,> 60%,
"CC(=O)c1c(C)c2cnc(Nc3ccc(N4CCN(CC5CCN(C(=O)N6CCC(c7ccc8c(c7)C(=O)N(C7CCC(=O)NC7=O)C8=O)CC6)CC5)CC4)cn3)nc2n(C2CCCC2)c1=O (stereo not drawn) [Compound 33, 5-(1-(4-((4-(6-((6-acetyl-8-cyclopentyl-5-methyl-7-oxo-7,8-dihydropyrido[2,3-d]pyrimidin-2-yl)amino)pyridin-3-yl)piperazin-1-yl)methyl)piperidine-1-carbonyl)piperidin-4-yl)-2-(2,6-dioxopiperidin-3-yl)isoindoline-1,3-dione]",50 to 200 nM,> 200 nM,> 60%,> 200 nM,> 50%,
CC(=O)c1c(C)c2cnc(Nc3ccc(N4CCN(CC5CCN(C(=O)N6CCC(c7ccc8c(c7)CN(C7CCC(=O)NC7=O)C8=O)CC6)CC5)CC4)cn3)nc2n(C2CCCC2)c1=O (stereo not drawn) [Compound 34],> 200 nM,> 200 nM,> 50%,> 200 nM,> 50%,
"CC(=O)c1c(C)c2cnc(Nc3ccc(N4CCN(C5CCN(C(=O)N6CCN(c7ccc8c(c7)C(=O)N(C7CCC(=O)NC7=O)C8=O)CC6)CC5)CC4)cn3)nc2n(C2CCCC2)c1=O (stereo not drawn) [Compound 35, 5-(4-(4-(4-(6-((6-acetyl-8-cyclopentyl-5-methyl-7-oxo-7,8-dihydropyrido[2,3-d]pyrimidin-2-yl)amino)pyridin-3-yl)piperazin-1-yl)piperidine-1-carbonyl)piperazin-1-yl)-2-(2,6-dioxopiperidin-3-yl)isoindoline-1,3-dione]",,50 to 200 nM,> 60%,> 200 nM,> 60%,50 to 200 nM
"CC(=O)c1c(C)c2cnc(Nc3ccc(N4CCN(C5CCN(C(=O)N6CCN(c7ccc8c(c7)CN(C7CCC(=O)NC7=O)C8=O)CC6)CC5)CC4)cn3)nc2n(C2CCCC2)c1=O (stereo not drawn) [Compound 36, 3-(5-(4-(4-(4-(6-((6-acetyl-8-cyclopentyl-5-methyl-7-oxo-7,8-dihydropyrido[2,3-d]pyrimidin-2-yl)amino)pyridin-3-yl)piperazin-1-yl)piperidine-1-carbonyl)piperazin-1-yl)-1-oxoisoindolin-2-yl)piperidine-2,6-dione]",50 to 200 nM,> 200 nM,> 60%,> 200 nM,> 60%,
"CC(=O)c1c(C)c2cnc(Nc3ccc(N4CCN(C5CCN(C(=O)N6CCC(c7ccc8c(c7)C(=O)N(C7CCC(=O)NC7=O)C8=O)CC6)CC5)CC4)cn3)nc2n(C2CCCC2)c1=O (stereo not drawn) [Compound 37, 5-(1-(4-(4-(6-((6-acetyl-8-cyclopentyl-5-methyl-7-oxo-7,8-dihydropyrido[2,3-d]pyrimidin-2-yl)amino)pyridin-3-yl)piperazin-1-yl)piperidine-1-carbonyl)piperidin-4-yl)-2-(2,6-dioxopiperidin-3-yl)isoindoline-1,3-dione]",> 200 nM,> 200 nM,> 50%,> 200 nM,> 50%,
"CC(=O)c1c(C)c2cnc(Nc3ccc(N4CCN(C5CCN(C(=O)N6CCC(c7ccc8c(c7)CN(C7CCC(=O)NC7=O)C8=O)CC6)CC5)CC4)cn3)nc2n(C2CCCC2)c1=O (stereo not drawn) [Compound 38, 3-(5-(1-(4-(4-(6-((6-acetyl-8-cyclopentyl-5-methyl-7-oxo-7,8-dihydropyrido[2,3-d]pyrimidin-2-yl)amino)pyridin-3-yl)piperazin-1-yl)piperidine-1-carbonyl)piperidin-4-yl)-1-oxoisoindolin-2-yl)piperidine-2,6-dione]",> 200 nM,> 200 nM,> 50%,> 200 nM,> 50%,
"CC(=O)c1c(C)c2cnc(Nc3ccc(N4CCN(C5CCN(C(=O)Nc6ccc7c(c6)C(=O)N(C6CCC(=O)NC6=O)C7=O)CC5)CC4)cn3)nc2n(C2CCCC2)c1=O (stereo not drawn) [Compound 39, 4-(4-(6-((6-acetyl-8-cyclopentyl-5-methyl-7-oxo-7,8-dihydropyrido[2,3-d]pyrimidin-2-yl)amino)pyridin-3-yl)piperazin-1-yl)-N-(2-(2,6-dioxopiperidin-3-yl)-1,3-dioxoisoindolin-5-yl)piperidine-1-carboxamide]",< 50 nM,50 to 200 nM,> 80%,50 to 200 nM,> 80%,
"CC(=O)c1c(C)c2cnc(Nc3ccc(N4CCN(C5CCN(C(=O)Nc6ccc7c(c6)CN(C6CCC(=O)NC6=O)C7=O)CC5)CC4)cn3)nc2n(C2CCCC2)c1=O (stereo not drawn) [Compound 40, 4-(4-(6-((6-acetyl-8-cyclopentyl-5-methyl-7-oxo-7,8-dibydropyrido[2,3-d]pyrimidin-2-yl)amino)pyridin-3-yl)piperazin-1-yl)-N-(2-(2,6-dioxopiperidin-3-yl)-1-oxoisoindolin-5-yl)piperidine-1-carboxamide]",< 50 nM,50 to 200 nM,> 60%,50 to 200 nM,> 80%,
"CC(=O)c1c(C)c2cnc(Nc3ccc(N4CCN(CC5CCN(C(=O)Nc6ccc7c(c6)C(=O)N(C6CCC(=O)NC6=O)C7=O)CC5)CC4)cn3)nc2n(C2CCCC2)c1=O (stereo not drawn) [Compound 41, 4-((4-(6-((6-acetyl-8-cyclopentyl-5-methyl-7-oxo-7,8-dihydropyrido[2,3-d]pyrimidin-2-yl)amino)pyridin-3-yl)piperazin-1-yl)methyl)-N-(2-(2,6-dioxopiperidin-3-yl)-1,3-dioxoisoindolin-5-yl)piperidine-1-carboxamide]",< 50 nM,< 50 nM,> 80%,50 to 200 nM,> 80%,

# Reference: patent US20230295118A1 (EnhancedBio Inc., priority 2022, published 2023)
